The values below are quoted from earlier work in patent US9937198B2, “Multi-functional composition and preparation method and application thereof” (Suzhou Sciscape Bio-Pharmaceutical Technology Co., Ltd., priority 2013, dated 2018).

The subject of one data set is rats. The conditions noted are these: cited from earlier work.
For data set [1] the following is noted: pure validamycin A; cited from earlier work.
Data set [2] deals with bees and other beneficial insects. Particulars: in vivo; cited from earlier work.

For `OCC1=C[C@@H](N[C@H]2C[C@H](CO)[C@@H](O[C@H]3O[C@@H](CO)[C@H](O)[C@@H](O)[C@@H]3O)[C@H](O)[C@H]2O)[C@H](O)[C@@H](O)[C@@H]1O` [Validamycin A, validamycin A], the “acute oral toxicity (LD50) in rats” value in the data set on rats is “above 20 g/kg”. Further, the solubility in water result in data set [1] is “soluble in water”. Also, the “toxicity to bees and other beneficial insects” value in data set [2] is on record as “no toxicity”.
